Here are results for seven molecules from patent US6153415A, “Method for producing amide compounds using a nitrile hydratase from a thermophilic bacillus” (priority 1999, dated 2000).

In one series the test system is Bacillus sp. BR449. As to the kind of experiment: Effect of metal ions on growth (total cells) of BR449. It counts as cell-based. The settings on record: divalent metal salt 20 mg/l in growth medium. As to the method: (§1) Bacillus sp. BR449 (ATCC 202119) was grown in OP medium at pH 7.2 which contained per liter: KH2 PO4, 1 g; K2 HPO4, 0.5 g; yeast extract, 1 g; malt extract, 1 g; peptone 2 g; glycerol, 3 g; casamino acids, 0.1 g. The isolate was grown at 60° C. using turbidity to monitor culture density. Divalent metal salts were added to the growth medium where indicated in concentrations of 20 mg/l.

Another series deals with T1, BR449 nitrile hydratase (Bacillus sp. BR449, UniProt Q9L541+Q9L542).
T1 construct: alpha 214 aa, beta 229 aa
T1 sequence (Q9L541 1-214): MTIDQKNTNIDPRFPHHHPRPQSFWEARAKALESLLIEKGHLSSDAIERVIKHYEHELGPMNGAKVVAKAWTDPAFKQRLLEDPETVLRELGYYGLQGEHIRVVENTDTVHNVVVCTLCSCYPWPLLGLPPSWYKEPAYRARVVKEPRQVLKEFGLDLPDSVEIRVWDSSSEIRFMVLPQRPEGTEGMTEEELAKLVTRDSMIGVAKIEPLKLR
T1 sequence (Q9L542 1-229): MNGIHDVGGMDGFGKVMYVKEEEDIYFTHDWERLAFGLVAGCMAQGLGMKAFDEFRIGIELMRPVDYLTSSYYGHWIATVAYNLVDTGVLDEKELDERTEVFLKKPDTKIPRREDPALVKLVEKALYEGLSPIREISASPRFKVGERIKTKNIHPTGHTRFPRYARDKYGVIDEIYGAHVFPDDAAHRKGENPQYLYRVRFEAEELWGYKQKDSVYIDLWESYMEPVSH
As to the kind of experiment: Effect of additions during growth on nitrile hydratase activity of BR449. Format: cell-based. The settings on record: for Nitrile hydratase Specific Activity: BR449 grown with divalent metal salt 20 mg/l. On the procedure: as §1
(§2) Nitrile hydratase activity was measured using whole cells in assays containing 20 mg (dry wt) cells, in 1 ml 0.5 M acrylonitrile and potassium phosphate buffer, containing 0.5 M acrylonitrile, pH 7.5. The reaction mixture was incubated in a water bath at 50° C. with shaking for 10 minutes, and the reaction stopped by addition of 0.2 ml 2 N HCl. Acrylamide formation was measured using HPLC by injection into a Novapak C-18 reverse phase column and eluted with 1:12 acetonitrile:5mM potassium phosphate buffer, pH 2.5. Peaks were identified at 200 nm with a Waters (Newton, Mass.) variable wavelength detector and analyzed with reference to chemical standards. One unit of nitrile hydratase activity is defined as the formation of one μmole acrylamide per minute. Amidase activity was measured in the same manner using 0.5 M acrylamide as substrate by measurement of acrylic acid formation.
(§3) Divalent metal ions were added during growth of isolate BR449 to provide indications of metals stimulatory to nitrile hydratase production.

In another series the test system is amidase. As to the kind of experiment: Effect of metal ions during growth on amidase activity of BR449. The settings on record: BR449 grown with divalent metal salt 20 mg/l. It counts as cell-based, Bacillus sp. BR449. As to the method:
as §1, §2, §3

The target of a further series is T2, hydratase of BR449 (Bacillus sp. BR449, UniProt Q9L541+Q9L542).
T2 construct: alpha 214 aa, beta 229 aa
T2 sequence (Q9L541 1-214): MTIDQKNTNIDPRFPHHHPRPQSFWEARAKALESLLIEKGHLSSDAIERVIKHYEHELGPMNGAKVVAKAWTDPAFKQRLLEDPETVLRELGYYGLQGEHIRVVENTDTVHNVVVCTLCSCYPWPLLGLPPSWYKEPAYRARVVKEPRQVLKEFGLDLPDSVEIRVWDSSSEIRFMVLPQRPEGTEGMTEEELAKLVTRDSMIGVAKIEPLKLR
T2 sequence (Q9L542 1-229): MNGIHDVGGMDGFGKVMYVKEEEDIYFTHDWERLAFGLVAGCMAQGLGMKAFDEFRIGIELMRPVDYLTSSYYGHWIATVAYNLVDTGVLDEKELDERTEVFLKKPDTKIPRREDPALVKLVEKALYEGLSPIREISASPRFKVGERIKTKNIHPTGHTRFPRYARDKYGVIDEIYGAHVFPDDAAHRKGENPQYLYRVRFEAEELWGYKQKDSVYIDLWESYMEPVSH
As to the kind of experiment: Nitrile hydratase activity with varied acrylonitrile concentration (substrate inhibition). Format: biochemical. The settings on record: 10% acrylonitrile, assay at 50° C. On the procedure: as §2, with “Nitrile hydratase activity was measured using whole cells in assays containing 20 mg (dry wt) cells, in 1 ml 0.5 M acrylonitrile and potassium phosphate buffer, containing 0.5 M acrylonitrile, pH 7.5.” left out

Series [1] in a line: Enzyme stability study, whole cells incubated in buffer at varied temperatures. Format: physicochemical, Bacillus sp. BR449. The settings on record: two hour incubations in buffer, assay at 50° C. On the procedure: For studies of nitrile hydratase stability, whole cells of BR449 were incubated at varied temperatures in 50 mM potassium phosphate buffer, pH 7.5, following which the nitrile hydratase assay was carried out at 50° C.

On to `[Co+2]` [Co^2+], for which the “Total Cells” value with Bacillus sp. BR449 is 225 mt/1, dry weight. Further, the “Nitrile hydratase Specific Activity” value at BR449 nitrile hydratase came to 71.5 U/mg. Further, the “Amidase Specific Activity” value in the series on amidase is 9.7 U/mg.

As for `[Cu+2]` [Cu^2+], the “Total Cells” value in the series with Bacillus sp. BR449 is recorded as 90 mt/1, dry weight. Also, the “Nitrile hydratase Specific Activity” value on BR449 nitrile hydratase is on record as 1.9 U/mg. Further, in the series with amidase, the “Amidase Specific Activity” value stood at 1.5 U/mg.

As for `[Fe+2]` [Fe^2+], the “Total Cells” value in the series on Bacillus sp. BR449 is reported as 490 mt/1, dry weight. The “Nitrile hydratase Specific Activity” value at BR449 nitrile hydratase is 4.3 U/mg. In addition, the “Amidase Specific Activity” value in the series with amidase is reported as 2.3 U/mg.

For the molecule `[Mn+2]` [Mn^2+], in the series with Bacillus sp. BR449, the “Total Cells” value is recorded as 65 mt/1, dry weight. The “Nitrile hydratase Specific Activity” value on BR449 nitrile hydratase was found to be 2.2 U/mg. Further, the “Amidase Specific Activity” value in the series with amidase is recorded as 2.1 U/mg.

On to `[Ni+2]` [Ni^2+], for which, in the series on Bacillus sp. BR449, the “Total Cells” value is recorded as 80 mt/1, dry weight. Also, the “Nitrile hydratase Specific Activity” value at BR449 nitrile hydratase is given as 6.8 U/mg. Further, in the series on amidase, the “Amidase Specific Activity” value stood at 3.4 U/mg.

Regarding `C=CC#N` [acrylonitrile], the “Induction of hydratase activity” value on BR449 nitrile hydratase (addition during BR449 growth) is given as “without effect”. For the same molecule, the “inhibition of BR449 hydratase (substrate inhibition)” value against hydratase of BR449 is reported as 47%.

B1: BR449 nitrile hydratase: cobalt-containing nitrile hydratase of Bacillus sp. BR449, alpha subunit SEQ ID NO:9, beta subunit SEQ ID NO:11 (protein)
alpha: MTIDQKNTNIDPRFPHHHPRPQSFWEARAKALESLLIEKGHLSSDAIERVIKHYEHELGPMNGAKVVAKAWTDPAFKQRLLEDPETVLRELGYYGLQGEHIRVVENTDTVHNVVVCTLCSCYPWPLLGLPPSWYKEPAYRARVVKEPRQVLKEFGLDLPDSVEIRVWDSSSEIRFMVLPQRPEGTEGMTEEELAKLVTRDSMIGVAKIEPLKLR
beta: MNGIHDVGGMDGFGKVMYVKEEEDIYFTHDWERLAFGLVAGCMAQGLGMKAFDEFRIGIELMRPVDYLTSSYYGHWIATVAYNLVDTGVLDEKELDERTEVFLKKPDTKIPRREDPALVKLVEKALYEGLSPIREISASPRFKVGERIKTKNIHPTGHTRFPRYARDKYGVIDEIYGAHVFPDDAAHRKGENPQYLYRVRFEAEELWGYKQKDSVYIDLWESYMEPVSH
For the molecule B1, in series [1], the “temperature to which the enzyme is stable” value was not above 60 °C.
